Results: ChEMBL document CHEMBL5715958 (Mol Cancer Res, 2018)
Blank lines part the entries; values can stand above or below the compound they belong to. Calls of active or inactive are those of the source. The rule behind the calls is not given here.

Experiments:
[1] = target: Dual specificity mitogen-activated protein kinase kinase 2 (Homo sapiens) (UniProt P36507); assay: Inhibition of MIB binding to MEK2 in human NCI-H2228 cell lysate at high dose incubated for 1 hr by Western blotting analysis; type: subcellular; conditions: dose 3-3000 µM
Chain of Dual specificity mitogen-activated protein kinase kinase 2 (Homo sapiens) (P36507 whole entry): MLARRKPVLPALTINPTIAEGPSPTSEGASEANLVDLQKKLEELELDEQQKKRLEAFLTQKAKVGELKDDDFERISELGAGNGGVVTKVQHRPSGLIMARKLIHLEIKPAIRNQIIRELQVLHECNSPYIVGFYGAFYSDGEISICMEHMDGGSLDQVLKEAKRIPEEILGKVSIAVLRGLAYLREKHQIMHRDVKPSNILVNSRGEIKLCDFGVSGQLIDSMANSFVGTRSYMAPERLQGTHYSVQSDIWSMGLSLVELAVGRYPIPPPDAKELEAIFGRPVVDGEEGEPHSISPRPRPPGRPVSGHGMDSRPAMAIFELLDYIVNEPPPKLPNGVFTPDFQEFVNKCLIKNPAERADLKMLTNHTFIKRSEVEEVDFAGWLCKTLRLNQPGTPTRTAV

[2] = system: Mus musculus; assay: Inhibition of MIB binding to MEK1 in mouse kidney at 3 mg/kg, po measured after 2 hr by MIB/MS competitive binding analysis; type: functional, organism-based
[3] = target: Dual specificity mitogen-activated protein kinase kinase 1 (Homo sapiens) (UniProt Q02750); assay: Inhibition of MIB binding to MEK1 in human NCI-H2228 cell lysate at high dose incubated for 1 hr by Western blotting analysis; type: subcellular
Chain of Dual specificity mitogen-activated protein kinase kinase 1 (Homo sapiens) (Q02750 whole entry): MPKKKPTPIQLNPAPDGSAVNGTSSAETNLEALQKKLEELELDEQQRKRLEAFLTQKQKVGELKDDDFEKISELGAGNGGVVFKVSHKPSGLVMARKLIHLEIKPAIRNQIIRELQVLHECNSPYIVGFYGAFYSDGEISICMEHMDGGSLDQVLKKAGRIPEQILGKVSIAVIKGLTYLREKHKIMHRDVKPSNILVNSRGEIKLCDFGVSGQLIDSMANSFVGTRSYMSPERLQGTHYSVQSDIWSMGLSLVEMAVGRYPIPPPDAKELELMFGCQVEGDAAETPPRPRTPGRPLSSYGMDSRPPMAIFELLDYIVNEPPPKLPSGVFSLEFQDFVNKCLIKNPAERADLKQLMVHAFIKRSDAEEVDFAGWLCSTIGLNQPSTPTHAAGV

[4] = target: Dual specificity mitogen-activated protein kinase kinase 1 (Homo sapiens) (UniProt Q02750); assay: Inhibition of MIB binding to MEK1 in human NCI-H2228 cell lysate at 3 to 3000 uM pre-incubated with MIB followed by compound addition measured after 1 hr by Western blotting analysis; type: subcellular; conditions: dose 3-3000 µM
[5] = target: Dual specificity mitogen-activated protein kinase kinase 2 (Homo sapiens) (UniProt P36507); assay: Inhibition of MIB binding to MEK2 in human NCI-H2228 cell lysate at 3 to 3000 uM pre-incubated with MIB followed by compound addition measured after 1 hr by Western blotting analysis; type: subcellular; conditions: dose 3-3000 µM
[6] = target: Tyrosine-protein kinase receptor UFO (Homo sapiens) (UniProt P30530); assay: Inhibition of MIB binding to AXL in human NCI-H2228 cell lysate at high dose incubated for 1 hr by Western blotting analysis; type: subcellular; conditions: dose 3-3000 µM
Chain of Tyrosine-protein kinase receptor UFO (Homo sapiens) (P30530 whole entry): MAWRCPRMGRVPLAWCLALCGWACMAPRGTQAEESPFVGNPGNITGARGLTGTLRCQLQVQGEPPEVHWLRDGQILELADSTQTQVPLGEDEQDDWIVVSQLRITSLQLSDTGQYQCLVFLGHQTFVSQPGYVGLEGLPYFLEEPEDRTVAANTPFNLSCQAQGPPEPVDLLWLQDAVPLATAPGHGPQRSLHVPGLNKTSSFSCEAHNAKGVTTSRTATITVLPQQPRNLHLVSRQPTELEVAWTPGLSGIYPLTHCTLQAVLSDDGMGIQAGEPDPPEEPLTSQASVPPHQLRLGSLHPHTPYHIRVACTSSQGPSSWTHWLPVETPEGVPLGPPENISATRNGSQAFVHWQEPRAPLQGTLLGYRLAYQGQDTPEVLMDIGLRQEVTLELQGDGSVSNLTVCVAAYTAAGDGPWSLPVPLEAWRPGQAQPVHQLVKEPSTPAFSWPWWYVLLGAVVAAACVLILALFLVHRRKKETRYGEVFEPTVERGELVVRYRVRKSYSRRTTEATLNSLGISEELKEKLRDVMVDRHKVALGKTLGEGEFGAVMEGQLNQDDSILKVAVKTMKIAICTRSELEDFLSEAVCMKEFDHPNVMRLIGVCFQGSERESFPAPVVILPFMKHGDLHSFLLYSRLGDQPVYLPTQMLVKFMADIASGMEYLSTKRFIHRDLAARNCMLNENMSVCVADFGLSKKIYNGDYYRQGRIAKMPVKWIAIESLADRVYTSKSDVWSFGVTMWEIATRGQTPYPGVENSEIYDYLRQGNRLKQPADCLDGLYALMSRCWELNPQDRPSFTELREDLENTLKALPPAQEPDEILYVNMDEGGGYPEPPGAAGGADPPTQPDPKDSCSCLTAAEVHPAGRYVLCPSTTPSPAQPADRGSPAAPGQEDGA

[7] = target: Dual specificity mitogen-activated protein kinase kinase 1 (Homo sapiens) (UniProt Q02750); assay: Inhibition of MIB binding to MEK1 in human NCI-H2228 cells at 3 to 3000 uM incubated for 1 hr by Western blotting analysis; type: cell-based; conditions: dose 3-3000 µM
[8] = target: Tyrosine-protein kinase receptor UFO (Homo sapiens) (UniProt P30530); assay: Inhibition of MIB binding to AXL in human NCI-H2228 cell lysate at 3 to 3000 uM pre-incubated with MIB followed by compound addition measured after 1 hr by Western blotting analysis; type: subcellular; conditions: dose 3-3000 µM
[9] = target: Dual specificity mitogen-activated protein kinase kinase 2 (Homo sapiens) (UniProt P36507); assay: Inhibition of MIB binding to MEK2 in human NCI-H2228 cells at 3 to 3000 uM incubated for 1 hr by Western blotting analysis; type: cell-based; conditions: dose 3-3000 µM
[10] = system: Mus musculus; assay: Inhibition of MIB binding to MEK2 in mouse kidney at 3 mg/kg, po measured after 2 hr by MIB/MS competitive binding analysis; type: functional, organism-based
[11] = target: Tyrosine-protein kinase receptor UFO (Homo sapiens) (UniProt P30530); assay: Inhibition of MIB binding to AXL in human NCI-H2228 cells at 3 to 3000 uM incubated for 1 hr by Western blotting analysis; type: cell-based; conditions: dose 3-3000 µM
[12] = target: Tyrosine-protein kinase Yes (Homo sapiens) (UniProt P07947); assay: Inhibition of MIB binding to YES1 in human NCI-H2228 cells at 0.01 to 10 uM incubated for 1 hr by MIB/MS competitive binding analysis; type: cell-based; conditions: dose 0.01-10 µM
Chain of Tyrosine-protein kinase Yes (Homo sapiens) (P07947 2-543 limits assumed): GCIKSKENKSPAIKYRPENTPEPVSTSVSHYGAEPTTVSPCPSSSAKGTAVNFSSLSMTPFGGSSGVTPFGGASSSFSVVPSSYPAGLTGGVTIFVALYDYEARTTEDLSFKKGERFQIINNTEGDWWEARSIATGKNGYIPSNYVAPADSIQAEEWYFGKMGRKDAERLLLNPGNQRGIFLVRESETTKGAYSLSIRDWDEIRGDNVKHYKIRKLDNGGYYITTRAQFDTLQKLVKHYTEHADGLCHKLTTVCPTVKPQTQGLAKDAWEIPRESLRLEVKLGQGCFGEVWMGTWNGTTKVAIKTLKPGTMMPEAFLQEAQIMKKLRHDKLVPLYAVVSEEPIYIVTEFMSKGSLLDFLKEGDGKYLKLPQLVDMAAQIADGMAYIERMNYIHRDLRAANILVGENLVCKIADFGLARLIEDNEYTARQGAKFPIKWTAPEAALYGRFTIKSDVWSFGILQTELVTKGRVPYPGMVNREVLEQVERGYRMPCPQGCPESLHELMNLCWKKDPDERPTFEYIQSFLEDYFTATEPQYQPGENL

[13] = target: Tyrosine-protein kinase Lyn (Homo sapiens) (UniProt P07948); assay: Inhibition of MIB binding to LYN in human NCI-H2228 cells at 0.01 to 10 uM incubated for 1 hr by MIB/MS competitive binding analysis; type: cell-based; conditions: dose 0.01-10 µM
Chain of Tyrosine-protein kinase Lyn (Homo sapiens) (P07948 2-512 limits assumed): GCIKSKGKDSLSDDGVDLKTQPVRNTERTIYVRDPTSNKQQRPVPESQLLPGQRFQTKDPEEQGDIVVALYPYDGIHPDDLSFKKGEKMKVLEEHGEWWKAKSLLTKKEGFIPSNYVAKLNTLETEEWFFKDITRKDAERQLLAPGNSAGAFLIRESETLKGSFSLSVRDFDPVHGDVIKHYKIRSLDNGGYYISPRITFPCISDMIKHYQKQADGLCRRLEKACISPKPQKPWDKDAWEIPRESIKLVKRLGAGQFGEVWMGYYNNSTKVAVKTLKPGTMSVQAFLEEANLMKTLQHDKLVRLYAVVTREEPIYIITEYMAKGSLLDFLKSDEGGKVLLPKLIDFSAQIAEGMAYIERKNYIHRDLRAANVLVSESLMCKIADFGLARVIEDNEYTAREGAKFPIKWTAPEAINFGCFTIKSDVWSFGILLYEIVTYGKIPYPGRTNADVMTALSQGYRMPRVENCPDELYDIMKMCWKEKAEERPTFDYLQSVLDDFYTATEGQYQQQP

[14] = target: Calcium/calmodulin-dependent protein kinase type II subunit beta (Homo sapiens, UniProt Q13554); assay: Inhibition of human CAMK2beta preincubated with compound for 20 mins followed by [33P]ATP addition and measured after 2 hrs by filter binding method
Chain of Calcium/calmodulin-dependent protein kinase type II subunit beta (Q13554 whole entry): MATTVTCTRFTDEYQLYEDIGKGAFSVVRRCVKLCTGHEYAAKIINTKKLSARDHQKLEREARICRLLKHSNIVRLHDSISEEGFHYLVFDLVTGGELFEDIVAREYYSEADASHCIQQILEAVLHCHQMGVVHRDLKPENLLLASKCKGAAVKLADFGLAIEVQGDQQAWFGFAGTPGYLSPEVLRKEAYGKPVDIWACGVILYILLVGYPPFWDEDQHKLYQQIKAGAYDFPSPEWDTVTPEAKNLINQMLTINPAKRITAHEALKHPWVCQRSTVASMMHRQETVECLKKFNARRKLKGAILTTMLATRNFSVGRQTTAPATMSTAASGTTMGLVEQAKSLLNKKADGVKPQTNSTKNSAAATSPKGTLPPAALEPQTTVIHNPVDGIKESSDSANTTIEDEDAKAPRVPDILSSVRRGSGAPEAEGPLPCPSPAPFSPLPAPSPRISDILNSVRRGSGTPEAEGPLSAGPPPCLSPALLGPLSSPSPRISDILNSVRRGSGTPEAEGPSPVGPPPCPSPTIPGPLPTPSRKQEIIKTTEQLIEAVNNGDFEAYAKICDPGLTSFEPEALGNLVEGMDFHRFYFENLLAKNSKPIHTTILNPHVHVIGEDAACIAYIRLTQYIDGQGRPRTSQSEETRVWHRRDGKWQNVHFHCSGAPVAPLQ

[15] = system: L-M(TK-); assay: Effect on beta-catenin protein level in mouse L-M(TK-) cells at 5 uM incubated for 6 hrs by Western blotting analysis; type: functional, cell-based
[16] = system: RKO; assay: Effect on beta-catenin protein level in human RKO cells at 5 uM incubated for 6 hrs by Western blotting analysis; type: functional, cell-based
[17] = target: Calcium/calmodulin-dependent protein kinase type II subunit gamma (Homo sapiens, UniProt Q13555); assay: Inhibition of human CAMK2gamma preincubated with compound for 20 mins followed by [33P]ATP addition and measured after 2 hrs by filter binding method
Chain of Calcium/calmodulin-dependent protein kinase type II subunit gamma (Q13555 whole entry): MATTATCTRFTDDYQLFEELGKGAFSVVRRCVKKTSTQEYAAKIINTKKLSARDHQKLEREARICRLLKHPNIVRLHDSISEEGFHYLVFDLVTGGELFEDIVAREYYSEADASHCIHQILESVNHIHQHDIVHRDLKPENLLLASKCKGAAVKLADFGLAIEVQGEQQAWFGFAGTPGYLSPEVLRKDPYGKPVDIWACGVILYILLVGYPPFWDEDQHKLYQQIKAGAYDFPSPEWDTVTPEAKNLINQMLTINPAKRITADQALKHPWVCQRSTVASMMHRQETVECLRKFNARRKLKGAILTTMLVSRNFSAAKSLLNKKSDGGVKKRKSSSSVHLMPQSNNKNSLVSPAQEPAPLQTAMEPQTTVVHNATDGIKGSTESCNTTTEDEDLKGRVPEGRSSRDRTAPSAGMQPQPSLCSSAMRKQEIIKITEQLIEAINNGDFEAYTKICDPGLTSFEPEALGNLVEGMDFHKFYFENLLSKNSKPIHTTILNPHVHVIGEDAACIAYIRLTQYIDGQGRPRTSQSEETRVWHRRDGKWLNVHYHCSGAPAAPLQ

[18] = target: Calcium/calmodulin-dependent protein kinase type II subunit delta (Homo sapiens, UniProt Q13557); assay: Inhibition of human CAMK2delta preincubated with compound for 20 mins followed by [33P]ATP addition and measured after 2 hrs by filter binding method
[19] = target: Cyclin-dependent kinase 4 (Homo sapiens) (UniProt P11802); assay: Inhibition of MIB binding to CDK4 in human NCI-H2228 cells at 0.01 to 10 uM incubated for 1 hr by Western blotting analysis; type: cell-based; conditions: dose 0.01-10 µM
Chain of Cyclin-dependent kinase 4 (Homo sapiens) (P11802 whole entry): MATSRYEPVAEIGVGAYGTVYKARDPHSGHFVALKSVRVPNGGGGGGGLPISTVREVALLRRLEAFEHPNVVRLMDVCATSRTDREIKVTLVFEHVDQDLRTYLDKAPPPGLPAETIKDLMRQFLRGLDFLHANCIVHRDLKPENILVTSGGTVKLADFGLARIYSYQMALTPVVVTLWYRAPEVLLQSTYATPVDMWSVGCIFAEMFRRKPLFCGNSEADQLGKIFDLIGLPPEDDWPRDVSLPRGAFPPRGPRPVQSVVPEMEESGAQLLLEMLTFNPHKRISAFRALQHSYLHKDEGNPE

[20] = target: Glycogen synthase kinase-3 beta (Homo sapiens) (UniProt P49841); assay: Inhibition of MIB binding to GSK3beta in human NCI-H2228 cells at 0.01 to 10 uM incubated for 1 hr by Western blotting analysis; type: cell-based; conditions: dose 0.01-10 µM
Chain of Glycogen synthase kinase-3 beta (Homo sapiens) (P49841 whole entry, looked up): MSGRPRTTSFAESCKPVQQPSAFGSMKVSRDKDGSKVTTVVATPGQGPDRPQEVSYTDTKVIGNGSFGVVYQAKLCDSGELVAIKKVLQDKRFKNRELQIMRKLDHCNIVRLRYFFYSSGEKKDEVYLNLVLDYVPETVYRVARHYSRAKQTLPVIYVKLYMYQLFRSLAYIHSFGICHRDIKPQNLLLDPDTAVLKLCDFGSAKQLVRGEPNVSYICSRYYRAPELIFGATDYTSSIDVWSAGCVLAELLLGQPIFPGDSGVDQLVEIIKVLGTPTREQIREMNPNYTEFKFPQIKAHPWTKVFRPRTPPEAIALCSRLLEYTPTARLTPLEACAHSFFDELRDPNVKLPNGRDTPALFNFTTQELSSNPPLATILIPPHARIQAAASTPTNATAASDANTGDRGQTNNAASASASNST

- inhibition [1]: Active
- inhibition [3]: Active
- inhibition [4]: Active
- inhibition [5]: Active
- inhibition [6]: inactive
- inhibition [7]: Active
- inhibition [8]: inactive
- inhibition [9]: Active
- inhibition [11]: inactive
Structure (SMILES): CC(=O)Nc1cccc(-n2c(=O)n(C3CC3)c(=O)c3c(Nc4ccc(I)cc4F)n(C)c(=O)c(C)c32)c1
- inhibition [2]: Active
- inhibition [10]: Active

- inhibition [12]: Active
- inhibition [13]: Active
Structure (SMILES): Cc1nc(Nc2ncc(C(=O)Nc3c(C)cccc3Cl)s2)cc(N2CCN(CCO)CC2)n1

Structure (SMILES): CC(=O)c1c(C)c2cnc(Nc3ccc(N4CCNCC4)cn3)nc2n(C2CCCC2)c1=O [PALBOCICLIB]
- IC50 [14]: 1600 nM
- Activity [15]: inactive
- Activity [16]: inactive

- IC50 [14]: 3.5 nM
- IC50 [17]: 52 nM
- IC50 [18]: 2.6 nM
Structure (SMILES): CCN1CCN(Cc2ccc(Nc3ncc(F)c(-c4cc(F)c5nc(C)n(C(C)C)c5c4)n3)nc2)CC1 [ABEMACICLIB]

- inhibition [19]: Active
- inhibition [20]: inactive
Structure (SMILES): CN(C)C(=O)c1cc2cnc(Nc3ccc(N4CCNCC4)cn3)nc2n1C1CCCC1
